# Reference: patent publication US9895353B2, “Use of L-tryptophan for the treatment of parasomnias” (Zzeemag Inc., priority 2013, dated 2018)
# What was measured:
# mild insomnia = conditions: lower doses (<4 g), without altering sleep architecture; cited from earlier work
# [1] = system: subjects presenting with parasomnia; assay: Case studies of subjects treated with L-tryptophan for parasomnia; format: in vivo, human
# Description: A detailed analysis of a number of subjects presenting with parasomnia who were treated with L-tryptophan was performed. A selection of case reports of subjects treated with L-tryptophan are summarized below. Remarkably, L-tryptophan is useful for the treatment of subjects presenting with a variety of abnormal behavioral or physiological events occurring in association with sleep, specific sleep stages, or sleep-wake transition.
# subjects with parasomnia = assay: Retrospective study of subjects with parasomnia (follow-up questionnaire and phone interview); format: in vivo, human
# Description: A retrospective study was performed to evaluate the effects of L-tryoptophan on subjects with parasomnia and to look for sleep architectural differences in children before and after treatment.
# Confidential charts were selected of boys and girls between the ages of 3 and 18 years with a clinical diagnosis of Parasomnias, and including behaviours of sleep walking, sleep talking, nightmares or night-terrors.
# The 165 subjects that were included in the retrospective study of confidential charts were prescribed treatment with L-Tryptophan or Clonazepam, or no treatment. The exclusion criteria were children under the age 3 years or over the age 18 years and those undergoing treatment for Parasomnia at the time of the sleep study.
# The diagnosis of parasomnia was made by a sleep physician and based on the clinical history together with confirmation from the polysomnographic sleep study findings.
# An overnight polysomnographic sleep study and questionnaire data were collected during this study for each subject. Each of the subjects at the sleep clinic responded to a battery of questionnaires consisting of: Pediatric Daytime Sleepiness Scale (PDSS), THAT alertness scale, SNAP assessment for ADHD symptoms, Centre for Epidemiologic Studies in depression scale modified for children (CES-DC), and SCARED anxiety scale.
# A follow-up questionnaire was formulated to assess for their symptoms following treatment with Tryptophan to compare values before and after treatment. A follow-up phone interview was conducted to assess the frequency of Parasomnias during and after treatment. The follow-up questionnaire included: daytime sleepiness, level of attention and concentration, ability to wake up in the morning, number of hours of sleep at night and incidence of temper tantrums.
# Ninety nine (60%) of the 165 children were prescribed L-tryptophan to manage their parasomnia. The remaining were either prescribed Clonazepam (n=32) or were not prescribed anything. The latter reflected parental preference and/or clinical judgement.
# [2] = Case A, current dose of 1.75 mg
# [3] = Case B, 3 g one hour before bedtime
# [4] = children treated with L-tryptophan
# [5] = out of 69 patients who took L-Tryptophan
# [6] = patients aged 3-18 years who took L-Tryptophan (n=69)
# [7] = patients who took L-Tryptophan (n=69)
# [8] = subjects administered L-tryptophan
structure (smiles),measurement,setting,value
"N[C@@H](Cc1c[nH]c2ccccc12)C(=O)O [L-tryptophan, (2S)-2-amino-3-(1H-indol-3-yl)propanoic acid]",decrease in sleep latency,mild insomnia,about half
same,daytime fatigue,[1]; [2],less problematic
same,nightly sleep talking,[1]; [2],ceased
same,patient's sleep,[1]; [2],improved
same,time to fall asleep after retiring to bed,[1]; [2],15 to 20 min
same,daytime somnolence or fatigue,[1]; [3],no observation of daytime somnolence or fatigue
same,night terrors,[1]; [3],no night terrors
same,nightly bedwetting / enuretic episodes,[1]; [3],still continues to experience nightly enuretic episodes
same,tolerability,"[1]; Case B, six capsules (3 g) one hour before bedtime",able to tolerate
same,daytime endurance,"[1]; Case C, dosage of 2 mg",improved significantly
same,sleepwalking,"[1]; Case C, dosage of 2 mg",No observed parasomnic behaviours of sleepwalking
same,subject's sleep,"[1]; Case C, dosage of 2 mg",marked improvement
same,bruxism,"[1]; Case D, 2 g daily",declined significantly
same,sleepwalking,"[1]; Case D, 2 g daily",no episodes of sleep walking
same,frequency of bedwetting,"[1]; Case E, 4.5 g daily",declined substantially
same,sleepwalking and sleep talking,"[1]; Case E, 4.5 g daily",no longer walked or talked in their sleep
same,sleep overall,"[1]; Case F, dose of 2.25 mg daily",improved noticeably
same,tolerability,"[1]; Case F, dose of 2.25 mg daily",tolerated L-tryptophan well
same,frequency of parasomnic events,subjects with parasomnia; [4],reduced
same,number of arousals in sleep,subjects with parasomnia; [4],decreasing
same,"side effects observed, number of patients",subjects with parasomnia; [5],7
same,"side effects observed, percent of patients",subjects with parasomnia; [5],10%
same,"improvement in parasomnia symptoms (B or R), number of patients",subjects with parasomnia; [6],55
same,"improvement in parasomnia symptoms (B or R), percent of patients",subjects with parasomnia; [6],80%
same,"no change in parasomnia symptoms (U), number of patients",subjects with parasomnia; [7],10
same,"no change in parasomnia symptoms (U), percent of patients",subjects with parasomnia; [7],14%
same,"worsening of parasomnia symptoms (W), number of patients",subjects with parasomnia; [7],4
same,"worsening of parasomnia symptoms (W), percent of patients",subjects with parasomnia; [7],6%
same,alertness during the day,subjects with parasomnia; [8],increased
same,attention during the day,subjects with parasomnia; [8],better
same,number of temper tantrums,subjects with parasomnia; [8],reduced
